Results: US20170210751A1, “PRMT5 INHIBITORS AND USES THEREOF” (Epizyme, Inc., priority 2014, published 2017)

The molecules below were run on Symmetric di-Methyl Arginine in Z-138 cells (assay: Z-138 Methylation Assay (In Cell Western for symmetric di-methyl arginine)). Settings: Homo sapiens, 96 hours incubation, symmetric di-methyl arginine normalised to DNA content, read-out: ICW EC50.
Type: cell-based
In short: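 Z-138 cells were treated with compound for 96 h at 37 °C, then fixed on poly-D-lysine plates. Symmetric di-methyl arginine was detected by In-Cell Western (800 nm) with DRAQ5 DNA normalisation (700 nm). Percent inhibition used DMSO and 3 μM reference-compound controls; IC50 curves came from triplicate wells.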

Structure (SMILES) | EC50 [nM]
CC(=O)N1CCC(Nc2cc(C(=O)NC[C@H](O)CN3CCc4ncn(C)c4C3)ncn2)CC1 [Compound 3-30, (S)-6-((1-acetylpiperidin-4-yl)amino)-N-(2-hydroxy-3-(3-methyl-6,7-dihydro-3H-imidazo[4,5-c]pyridin-5(4H)-yl)propyl)pyrimidine-4-carboxamide] | > 1000
CC(=O)N1CC(Nc2cc(C(=O)NC[C@H](O)CN3CCc4c(cnn4C)C3)ncn2)C1 [Compound 3-29] | > 1000
O=C(COc1cccc2cccnc12)NCC(O)CN1CCc2ccsc2C1 (stereo not drawn) [Compound 1-5, N-(2-hydroxy-3-{4H,5H,6H,7H-thieno[2,3-c]pyridin-6-yl}propyl)-2-(quinolin-8-yloxy)acetamide] | 101 to 1000
